According to US20230203081A1, “LINCOSAMIDE ANTIBIOTICS AND USES THEREOF” (President and Fellows of Harvard College, priority 2020, published 2023):
Converted amounts (≈) assume the structure as drawn. Where two headings read alike, the source gives them in different places.

Assays:
Format in all cases: cell-based
E. coli ΔTolC = experiment: microbe, parasite or virus in culture; settings: Escherichia coli, E. coli HAV#038; ΔTolC
Summary of the method: (§1)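 Isolates other than streptococci and anaerobes, which had their own procedures, were grown overnight at 35° C on tryptic soy agar with 5% sheep blood. Suspensions were then diluted to a final inoculum of 5×10^5 CFU/mL in broth microdilution wells.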

S. aureus MP-549 msrA = experiment: microbe, parasite or virus in culture
Summary of the method: as §1

B. fragilis ATCC 25285 = experiment: MIC (broth microdilution or agar dilution, CLSI)
Summary of the method: (§2)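 Triplicate CLSI determinations by broth or agar dilution, compound at 128-0.06 μg/mL in 2.5% DMSO; special handling for anaerobes. Broth microdilution used 5×10^5 CFU/mL inocula in cation-adjusted Mueller-Hinton broth.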

C. difficile ATCC 700057 = experiment: MIC (broth microdilution or agar dilution, CLSI)
Summary of the method: as §2

E. coli ATCC 25922 = experiment: MIC (broth microdilution or agar dilution, CLSI)
Summary of the method: as §1

E. coli LptD = experiment: MIC (broth microdilution or agar dilution, CLSI); settings: Escherichia coli, E. coli HAV#040; LptD; read-out: MIC
Summary of the method: as §1

E. faecalis ATCC 29212 = experiment: MIC (broth microdilution or agar dilution, CLSI)
Summary of the method: as §1

H. influenzae ATCC 49247 = experiment: MIC (broth microdilution or agar dilution, CLSI)
Summary of the method: as §1

K. pneumoniae ATCC 10031 = experiment: MIC (broth microdilution or agar dilution, CLSI)
Summary of the method: as §1

S. aureus ATCC 29213 = experiment: MIC (broth microdilution or agar dilution, CLSI)
Summary of the method: as §1

S. pneumoniae ATCC 49619 = experiment: MIC (broth microdilution or agar dilution, CLSI)
Summary of the method: as §1

S. pyogenes ATCC 19615 = experiment: MIC (broth microdilution or agar dilution, CLSI)
Summary of the method: as §1

S. aureus BAA 977 iErmA = experiment: microbe, parasite or virus in culture
Summary of the method: as §1

C. scindens ATCC 35704 = experiment: MIC (broth microdilution or agar dilution, CLSI); settings: C. scindens ATCC 35704
Summary of the method: as §2

[1] = tested on: E. coli MP-74 LptD mutant; experiment: MIC (broth microdilution or agar dilution, CLSI)
Summary of the method: as §2

E. coli MP-9 ΔTolC = experiment: MIC (broth microdilution or agar dilution, CLSI)
Summary of the method: as §1

[2] = tested on: E. faecalis MMX 847; cErmB; experiment: MIC (broth microdilution or agar dilution, CLSI); settings: E. faecalis MMX 847, cErmB
Summary of the method: as §1

S. aureus MMX 3035 cErmA = experiment: MIC (broth microdilution or agar dilution, CLSI); settings: S. aureus MMX 3035 cErmA
Summary of the method: as §1

[3] = tested on: S. pneumoniae MMX 3028 cErmB; experiment: MIC (broth microdilution or agar dilution, CLSI); settings: S. pneumoniae MMX 3028 cErmB
Summary of the method: as §1

[4] = tested on: S. pneumoniae MMX 3031 cMefA; experiment: MIC (broth microdilution or agar dilution, CLSI); settings: S. pneumoniae MMX 3031 cMefA
Summary of the method: as §1

[5] = tested on: S. pyogenes MMX 946; cErmB; experiment: MIC (broth microdilution or agar dilution, CLSI); settings: S. pyogenes MMX 946, cErmB
Summary of the method: as §1

CCN1CCN(c2cc3c(cc2F)c(=O)c(C(=O)O)cn3C2CC2)CC1 [Enrofloxacin]
MIC (E. coli ΔTolC): ≤ 0.06 µg/mL
MIC (S. aureus MP-549 msrA; Staphylococcus aureus, MP549MSRA, S. aureus HAV#032, MP-549, MSR(A), read-out: MIC): 0.5 µg/mL (≈ 1.39 µM)
MIC (B. fragilis ATCC 25285; Bacteroides fragilis, ATCC25285, B. fragilis HAV#013, ATCC 25285, read-out: MIC): 2 µg/mL (≈ 5.56 µM)
MIC (C. difficile ATCC 700057; Clostridioides difficile, ATCC700057, C. difficile HAV#011, ATCC 700057, read-out: MIC): 32 µg/mL (≈ 89 µM)
MIC (E. coli ATCC 25922; Escherichia coli, ATCC25922, E. coli HAV#006, ATCC 25922, read-out: MIC): ≤ 0.06 µg/mL
MIC (E. coli LptD): ≤ 0.06 µg/mL
MIC (E. faecalis ATCC 29212; Enterococcus faecalis, ATCC29212, E. faecalis HAV#005, ATCC 29212, read-out: MIC): 0.5 µg/mL (≈ 1.39 µM)
MIC (H. influenzae ATCC 49247; Haemophilus influenzae, ATCC49247, H. influenzae HAV#007, ATCC 49247, read-out: MIC): ≤ 0.06 µg/mL
MIC (K. pneumoniae ATCC 10031; Klebsiella pneumoniae, ATCC10031, K. pneumoniae HAV#008, ATCC 10031, read-out: MIC): ≤ 0.06 µg/mL
MIC (S. aureus ATCC 29213; Staphylococcus aureus, ATCC29213, S. aureus HAV#001, ATCC 29213, MP-549, read-out: MIC): 0.125 µg/mL (≈ 0.348 µM)
MIC (S. pneumoniae ATCC 49619; Streptococcus pneumoniae, ATCC49619, S. pneumoniae HAV#003, ATCC 49619, read-out: MIC): 0.25 µg/mL (≈ 0.696 µM)
MIC (S. pyogenes ATCC 19615; Streptococcus pyogenes, ATCC19615, S. pyogenes HAV#004, ATCC 19615, read-out: MIC): 0.25 µg/mL (≈ 0.696 µM)

CSC1O[C@H]([C@H](NC(=O)[C@H]2NC[C@@H]3C[C@@H](C(C)C)CCO[C@H]32)[C@H](C)Cl)C(O)[C@@H](O)[C@H]1O (stereo partly shown) [FSA-512078a]
MIC (S. aureus BAA 977 iErmA; S. aureus BAA 977 iErmA): 0.06 µg/mL (≈ 0.125 µM)
MIC (S. aureus MP-549 msrA; S. aureus MP-549 msrA): 0.06 µg/mL (≈ 0.125 µM)
MIC (B. fragilis ATCC 25285; B. fragilis ATCC 25285): 1 µg/mL (≈ 2.08 µM)
MIC (C. difficile ATCC 700057; C. difficile ATCC 700057): 1 µg/mL (≈ 2.08 µM)
MIC (C. scindens ATCC 35704): 0.25 µg/mL (≈ 0.52 µM)
MIC ([1]; E. coli MP-74 LptD mutant): 4 µg/mL (≈ 8.32 µM)
MIC (E. coli ATCC 25922; E. coli ATCC 25922): 32 µg/mL (≈ 66.5 µM)
MIC (E. coli MP-9 ΔTolC; E. coli MP-9 ΔTolC): 2 µg/mL (≈ 4.16 µM)
MIC (E. faecalis ATCC 29212; E. faecalis ATCC 29212): 0.25 µg/mL (≈ 0.52 µM)
MIC [2]: 32 µg/mL (≈ 66.5 µM)
MIC (H. influenzae ATCC 49247; H. influenzae ATCC 49247): 8 µg/mL (≈ 16.6 µM)
MIC (K. pneumoniae ATCC 10031; K. pneumoniae ATCC 10031): 1 µg/mL (≈ 2.08 µM)
MIC (S. aureus ATCC 29213; S. aureus ATCC 29213): 0.06 µg/mL (≈ 0.125 µM)
MIC (S. aureus MMX 3035 cErmA): 32 µg/mL (≈ 66.5 µM)
MIC (S. pneumoniae ATCC 49619; S. pneumoniae ATCC 49619): 0.03 µg/mL (≈ 0.0624 µM)
MIC [3]: 8 µg/mL (≈ 16.6 µM)
MIC [4]: 0.03 µg/mL (≈ 0.0624 µM)
MIC (S. pyogenes ATCC 19615; S. pyogenes ATCC 19615): 0.02 µg/mL (≈ 0.0416 µM)
MIC [5]: 8 µg/mL (≈ 16.6 µM)

CSC1O[C@H]([C@H](NC(=O)[C@H]2NC[C@@H]3C[C@H](C(C)C)CCO[C@H]32)[C@H](C)Cl)C(O)[C@@H](O)[C@H]1O (stereo partly shown) [FSA-512078b]
MIC (S. aureus MP-549 msrA; S. aureus MP-549 msrA): 0.25 µg/mL (≈ 0.52 µM)
MIC ([1]; E. coli MP-74 LptD mutant): 16 µg/mL (≈ 33.3 µM)
MIC (E. coli ATCC 25922; E. coli ATCC 25922): 128 µg/mL (≈ 266 µM)
MIC (E. coli MP-9 ΔTolC; E. coli MP-9 ΔTolC): 4 µg/mL (≈ 8.32 µM)
MIC (E. faecalis ATCC 29212; E. faecalis ATCC 29212): 0.5 µg/mL (≈ 1.04 µM)
MIC (H. influenzae ATCC 49247; H. influenzae ATCC 49247): 32 µg/mL (≈ 66.5 µM)
MIC (K. pneumoniae ATCC 10031; K. pneumoniae ATCC 10031): 4 µg/mL (≈ 8.32 µM)
MIC (S. aureus ATCC 29213; S. aureus ATCC 29213): 0.5 µg/mL (≈ 1.04 µM)
MIC (S. pyogenes ATCC 19615; S. pyogenes ATCC 19615): ≤0.12 µg/mL

CSC1O[C@H]([C@H](NC(=O)[C@@H]2[C@@H]3OCC[C@@H](C4CCCC4)C[C@H]3CN2C)[C@H](C)Cl)CC(O)[C@H]1O (stereo partly shown) [FSA-513001b]
MIC (S. aureus BAA 977 iErmA; Staphylococcus aureus, BAA977): 0.12 µg/mL (≈ 0.238 µM)
MIC (S. aureus MP-549 msrA; Staphylococcus aureus, MP549MSRA, S. aureus MP-549 msrA): 0.12 µg/mL (≈ 0.238 µM)
MIC ([1]; Escherichia coli): 4 µg/mL (≈ 7.92 µM)
MIC (E. coli ATCC 25922; Escherichia coli, ATCC25922, E. coli ATCC 25922, read-out: MIC): 64 µg/mL (≈ 127 µM)
MIC (E. coli MP-9 ΔTolC; Escherichia coli): 2 µg/mL (≈ 3.96 µM)
MIC (E. faecalis ATCC 29212; Enterococcus faecalis, ATCC29212, E. faecalis ATCC 29212, read-out: MIC): 0.12 µg/mL (≈ 0.238 µM)
MIC ([2]; Enterococcus faecalis, read-out: MIC): 16 µg/mL (≈ 31.7 µM)
MIC (H. influenzae ATCC 49247; Haemophilus influenzae, ATCC49247, H. influenzae ATCC 49247, read-out: MIC): 4 µg/mL (≈ 7.92 µM)
MIC (S. aureus ATCC 29213; Staphylococcus aureus, ATCC29213, S. aureus ATCC 29213, read-out: MIC): 0.12 µg/mL (≈ 0.238 µM)
MIC (S. aureus MMX 3035 cErmA; Staphylococcus aureus, MMX3035CERMA, read-out: MIC): 32 µg/mL (≈ 63.4 µM)
MIC (S. pneumoniae ATCC 49619; Streptococcus pneumoniae, ATCC49619, S. pneumoniae ATCC 49619, read-out: MIC): 0.06 µg/mL (≈ 0.119 µM)
MIC ([3]; Streptococcus pneumoniae, MMX3028CERMB, read-out: MIC): 16 µg/mL (≈ 31.7 µM)
MIC ([4]; Streptococcus pneumoniae, MMX3031CMEFA, read-out: MIC): ≤ 0.06 µg/mL
MIC (S. pyogenes ATCC 19615; Streptococcus pyogenes, ATCC19615, S. pyogenes ATCC 19615, read-out: MIC): 0.06 µg/mL (≈ 0.119 µM)
MIC ([5]; Streptococcus pyogenes, read-out: MIC): 16 µg/mL (≈ 31.7 µM)
